Results published in PubChem BioAssay (NCI).
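Compound exposure: 48 hours, 5 concentrations, 96-well plates. At the GI50, growth is halved. TGI denotes the concentration required for complete inhibition of growth.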

What was measured:
Assay in all cases: DTP human tumour cell line panel, 48 h
NCI-H460 lung = tested on: NCI-H460 lung
NCI-H522 lung = tested on: NCI-H522 lung
NCI/ADR-RES ovarian = tested on: NCI/ADR-RES ovarian
OVCAR-3 ovarian = tested on: OVCAR-3 ovarian
OVCAR-4 ovarian = tested on: OVCAR-4 ovarian
OVCAR-5 ovarian = tested on: OVCAR-5 ovarian
OVCAR-8 ovarian = tested on: OVCAR-8 ovarian
PC-3 prostate = tested on: PC-3 prostate
RPMI-8226 leukemia = tested on: RPMI-8226 leukemia
RXF 393 renal = tested on: RXF 393 renal
SF-268 CNS = tested on: SF-268 CNS
SF-295 CNS = tested on: SF-295 CNS
SF-539 CNS = tested on: SF-539 CNS
SK-MEL-2 melanoma = tested on: SK-MEL-2 melanoma
SK-MEL-28 melanoma = tested on: SK-MEL-28 melanoma
SK-MEL-5 melanoma = tested on: SK-MEL-5 melanoma
SK-OV-3 ovarian = tested on: SK-OV-3 ovarian
SN12C renal = tested on: SN12C renal
SNB-19 CNS = tested on: SNB-19 CNS
SNB-75 CNS = tested on: SNB-75 CNS
SR leukemia = tested on: SR leukemia
SW-620 colon = tested on: SW-620 colon
T-47D breast = tested on: T-47D breast
TK-10 renal = tested on: TK-10 renal
U251 CNS = tested on: U251 CNS
UACC-257 melanoma = tested on: UACC-257 melanoma
UACC-62 melanoma = tested on: UACC-62 melanoma
UO-31 renal = tested on: UO-31 renal

NC(=O)Oc1cc(OC(N)=O)cc(N(CCCl)CCCl)c1
GI50 (NCI-H460 lung): 0.748 µM | TGI (NCI-H460 lung): 26.9 µM | GI50 (NCI-H522 lung): 2.08 µM | TGI (NCI-H522 lung): 6.12 µM | GI50 (NCI/ADR-RES ovarian): 5.45 µM | TGI (NCI/ADR-RES ovarian): > 100 µM | GI50 (OVCAR-3 ovarian): 4.74 µM | TGI (OVCAR-3 ovarian): 25.9 µM | GI50 (OVCAR-4 ovarian): 14.8 µM | TGI (OVCAR-4 ovarian): 79.3 µM | GI50 (OVCAR-5 ovarian): 4.35 µM | TGI (OVCAR-5 ovarian): 30 µM | GI50 (OVCAR-8 ovarian): 5.74 µM | TGI (OVCAR-8 ovarian): 67.6 µM | GI50 (PC-3 prostate): 7.1 µM | TGI (PC-3 prostate): 54.8 µM | GI50 (RPMI-8226 leukemia): 3.67 µM | TGI (RPMI-8226 leukemia): 53.2 µM | GI50 (RXF 393 renal): 1.98 µM | TGI (RXF 393 renal): 5.4 µM | GI50 (SF-268 CNS): 1.88 µM | TGI (SF-268 CNS): 29.4 µM | GI50 (SF-295 CNS): 2.89 µM | TGI (SF-295 CNS): > 100 µM | GI50 (SF-539 CNS): 1.65 µM | TGI (SF-539 CNS): 5.96 µM | GI50 (SK-MEL-2 melanoma): 15.6 µM | TGI (SK-MEL-2 melanoma): 47.8 µM | GI50 (SK-MEL-28 melanoma): 15.7 µM | TGI (SK-MEL-28 melanoma): 65.3 µM | GI50 (SK-MEL-5 melanoma): 6.93 µM | TGI (SK-MEL-5 melanoma): 52.5 µM | GI50 (SK-OV-3 ovarian): 13.1 µM | TGI (SK-OV-3 ovarian): > 100 µM | GI50 (SN12C renal): 2.41 µM | TGI (SN12C renal): > 100 µM | GI50 (SNB-19 CNS): 10.6 µM | TGI (SNB-19 CNS): > 100 µM | GI50 (SNB-75 CNS): 2.71 µM | TGI (SNB-75 CNS): 25.3 µM | GI50 (SR leukemia): 1.04 µM | TGI (SR leukemia): > 100 µM | GI50 (SW-620 colon): 7.59 µM | TGI (SW-620 colon): > 100 µM | GI50 (T-47D breast): 7.78 µM | TGI (T-47D breast): > 100 µM | GI50 (TK-10 renal): 19.3 µM | TGI (TK-10 renal): 55.9 µM | GI50 (U251 CNS): 2.24 µM | TGI (U251 CNS): 54.9 µM | GI50 (UACC-257 melanoma): 12.1 µM | TGI (UACC-257 melanoma): 53.6 µM | GI50 (UACC-62 melanoma): 4.1 µM | TGI (UACC-62 melanoma): 18.4 µM | GI50 (UO-31 renal): 2.57 µM | TGI (UO-31 renal): 15.9 µM
